Reference: US8895738B2, “Mesoionic pyrido [1, 2-A] pyrimidine pesticides” (E I du Pont de Nemours and Company, priority 2010, dated 2014)
Counter-ions that a name gives are not always drawn.

Columns and labels:
Format in all cases: in vivo
[1] = tested on: corn planthopper (Peregrinus maidis); assay: Test D: control of corn planthopper on maize plant, contact and/or systemic; conditions: 144 h, assessed after 6 days, read-out: control efficacy: mortality; for mortality at 10 ppm: sprayed at 10 ppm; for mortality at 50 ppm: sprayed at 50 ppm; for mortality at 250 ppm: sprayed at 250 ppm; for mortality at 2 ppm: sprayed at 2 ppm
Protocol: For evaluating control of corn planthopper (Peregrinus maidis) through contact and/or systemic means, the test unit consisted of a small open container with a 3-4-day-old maize plant (spike) inside. White sand was added to the top of the soil prior to application. Test compounds were formulated and sprayed at 250, 50, 10 and/or 2 ppm, and replicated three times as described for Test A. After spraying, the test units were allowed to dry for 1 h before they were post-infested with ˜15-20 nymphs (18 to 21 day old) by sprinkling them onto the sand with a salt shaker. A black, screened cap was placed on the top of each test unit, and the test units were held for 6 days in a growth chamber at 22-24° C. and 50-70% relative humidity. Each test unit was then visually assessed for insect mortality.

[2] = tested on: cotton melon aphid (Aphis gossypii); assay: Test C: control of cotton melon aphid on cotton plant, contact and/or systemic; conditions: for mortality at 50 ppm: sprayed at 50 ppm
Source text: For evaluating control of cotton melon aphid (Aphis gossypii) through contact and/or systemic means, the test unit consisted of a small open container with a 6-7-day-old cotton plant inside. This was pre-infested with 30-40 insects on a piece of leaf according to the cut-leaf method described for Test B, and the soil of the test unit was covered with a layer of sand.
Test compounds were formulated and sprayed at 250 and/or 50 ppm as described for Test B. The applications were replicated three times. After spraying, the test units were maintained in a growth chamber and then visually rated as described for […].

[3] = tested on: green peach aphid (Myzus persicae); assay: Test B: control of green peach aphid on radish plant, contact and/or systemic; conditions: 144 h, assessed after 6 days; for mortality at 50 ppm: sprayed at 50 ppm
Source text: For evaluating control of green peach aphid (Myzus persicae) through contact and/or systemic means, the test unit consisted of a small open container with a 12-15-day-old radish plant inside. This was pre-infested by placing on a leaf of the test plant 30-40 aphids on a piece of leaf excised from a culture plant (cut-leaf method). The aphids moved onto the test plant as the leaf piece desiccated. After pre-infestation, the soil of the test unit was covered with a layer of sand.
Test compounds were formulated and sprayed at 250, 50 and/or 10 ppm as described for Test A. The applications were replicated three times. After spraying of the formulated test compound, each test unit was allowed to dry for 1 h and then a black, screened cap was placed on top. The test units were held for 6 days in a growth chamber at 19-21° C. and 50-70% relative humidity. Each test unit was then visually assessed for insect mortality.

[4] = tested on: potato leafhopper (Empoasca fabae); assay: Test E: control of potato leafhopper on Soleil bean plant, contact and/or systemic; conditions: 144 h, assessed after 6 days, read-out: control efficacy: mortality; for mortality at 2 ppm: sprayed at 2 ppm; for mortality at 10 ppm: sprayed at 10 ppm; for mortality at 50 ppm: sprayed at 50 ppm
Protocol: For evaluating control of potato leafhopper (Empoasca fabae) through contact and/or systemic means, the test unit consisted of a small open container with a 5-6-day-old Soleil bean plant (primary leaves emerged) inside. White sand was added to the top of the soil and one of the primary leaves was excised prior to application.
Test compounds were formulated and sprayed at 250, 50, 10 and/or 2 ppm, and the tests were replicated three times as described for Test A. After spraying, the test units were allowed to dry for 1 h before they were post-infested with 5 potato leafhoppers (18-21-day-old adults). A black, screened cap was placed on the top of each test unit, and the test units were held for 6 days in a growth chamber at 24° C. and 70% relative humidity. Each test unit was then visually assessed for insect mortality.

[5] = tested on: rice brown planthopper (Nilaparvata lugens); assay: Test H: control of rice brown planthopper on rice plant; conditions: 120 h, assessed after 5 days, read-out: control efficacy: mortality; for mortality at 2 ppm: sprayed at 2 ppm; for mortality at 10 ppm: sprayed at 10 ppm
Protocol: (§1) For evaluating control of rice brown planthopper (Nilaparvata lugens) through contact and/or systemic means, the test unit consisted of a plastic pot containing a 13-cm-tall rice plant covered with steel wire mesh (50 mesh) supported by a wire frame. A small amount of sand was added to form a good seal between the bottom of the wire mesh, the soil surface and the top edge of the plastic pot.
(§2) Test compounds were formulated and sprayed at 10, 2 and/or 0.4 ppm, and the tests were replicated three times in a manner similar to the one described for Test A. After spraying, the test units were allowed to dry for 2 h before they were post-infested with 10 brown planthoppers (3rd instar nymphs, 7-9 days post-hatch). After 5 days, each test unit was visually assessed for insect mortality.

[6] = tested on: rice green leafhopper (Nephotettix virescens); assay: Test G: control of rice green leafhopper on rice plant; conditions: 120 h, assessed after 5 days, read-out: control efficacy: mortality; for mortality at 10 ppm: sprayed at 10 ppm; for mortality at 50 ppm: sprayed at 50 ppm
Protocol: as §1, with “green leafhopper (Nephotettix virescens)” for “brown planthopper (Nilaparvata lugens)”
as §2, with “50, 10 and/or” for “10,”, “2” for “2 and/or 0.4”, “green leafhoppers” for “brown planthoppers”

O=c1c(-c2ccccc2)c([O-])[n+](Cc2cncnc2)c2ccccn12 [Compound 1, 2-hydroxy-4-oxo-3-phenyl-1-(5-pyrimidinylmethyl)-4H-pyrido[1,2-a]pyrimidinium inner salt]
≥ 80%: mortality at 10 ppm [1] | mortality at 50 ppm [1] | mortality at 250 ppm [1] | mortality at 250 ppm ([2]; sprayed at 250 ppm) | mortality at 50 ppm [3] | mortality at 250 ppm ([3]; sprayed at 250 ppm) | mortality at 2 ppm [4] | mortality at 10 ppm [4] | mortality at 50 ppm [4] | mortality at 250 ppm ([4]; sprayed at 250 ppm)

O=c1c(-c2ccc(F)cc2)c([O-])[n+](Cc2cncnc2)c2ccccn12 [Compound 2, 3-(4-fluorophenyl)-2-hydroxy-4-oxo-1-(5-pyrimidinylmethyl)-4H-pyrido[1,2-a]pyrimidinium inner salt]
≥ 80%: mortality at 2 ppm [5] | mortality at 10 ppm [5] | mortality at 2 ppm [1] | mortality at 10 ppm [1] | mortality at 50 ppm [1] | mortality at 250 ppm [1] | mortality at 10 ppm [4] | mortality at 50 ppm [4] | mortality at 10 ppm [6] | mortality at 50 ppm [6]

COc1ccccc1-c1c([O-])[n+](Cc2cncnc2)c2ccccn2c1=O [Compound 4, 2-hydroxy-3-(2-methoxyphenyl)-4-oxo-1-(5-pyrimidinylmethyl)-4H-pyrido[1,2-a]pyrimidinium inner salt]
≥ 80%: mortality at 50 ppm [1] | mortality at 50 ppm [4]

COc1cccc(-c2c([O-])[n+](Cc3cncnc3)c3ccccn3c2=O)c1 [Compound 5, 2-hydroxy-3-(3-methoxyphenyl)-4-oxo-1-(5-pyrimidinylmethyl)-4H-pyrido[1,2-a]pyrimidinium inner salt]
≥ 80%: mortality at 10 ppm [1] | mortality at 50 ppm [1] | mortality at 10 ppm [4] | mortality at 50 ppm [4]

O=c1c(-c2ccc(F)cc2F)c([O-])[n+](Cc2cncnc2)c2ccccn12 [Compound 6, 3-(2,4-difluorophenyl)-2-hydroxy-4-oxo-1-(5-pyrimidinylmethyl)-4H-pyrido[1,2-a]pyrimidinium inner salt]
≥ 80%: mortality at 10 ppm [4] | mortality at 50 ppm [4]

O=c1c(-c2cccc(OC(F)(F)F)c2)c([O-])[n+](Cc2cncnc2)c2ccccn12 [Compound 7, 2-hydroxy-4-oxo-1-(5-pyrimidinylmethyl)-3-[3-(trifluoromethoxy)phenyl]-4H-pyrido[1,2-a]pyrimidinium inner salt]
≥ 80%: mortality at 0.4 ppm ([5]; sprayed at 0.4 ppm) | mortality at 2 ppm [5] | mortality at 10 ppm [5] | mortality at 50 ppm [2] | mortality at 2 ppm [4] | mortality at 10 ppm [4] | mortality at 50 ppm [4] | mortality at 2 ppm ([6]; sprayed at 2 ppm) | mortality at 10 ppm [6] | mortality at 50 ppm [6]

O=c1c(-c2cccc(Br)c2)c([O-])[n+](Cc2cncnc2)c2ccccn12 [Compound 8]
≥ 80%: mortality at 50 ppm [4]

O=c1c(-c2ccccc2F)c([O-])[n+](Cc2cncnc2)c2ccccn12 [Compound 9, 3-(2-fluorophenyl)-2-hydroxy-4-oxo-1-(5-pyrimidinylmethyl)-4H-pyrido[1,2-a]pyrimidinium inner salt]
≥ 80%: mortality at 10 ppm [5] | mortality at 50 ppm [1] | mortality at 10 ppm [4] | mortality at 50 ppm [4]

O=c1c(-c2cc(C(F)(F)F)ccc2F)c([O-])[n+](Cc2cncnc2)c2ccccn12 [Compound 10, 3-[2-fluoro-5-(trifluoromethyl)phenyl]-2-hydroxy-4-oxo-1-(5-pyrimidinylmethyl)-4H-pyrido[1,2-a]pyrimidinium inner salt]
≥ 80%: mortality at 2 ppm [5] | mortality at 10 ppm [5] | mortality at 10 ppm [1] | mortality at 50 ppm [1] | mortality at 250 ppm [1] | mortality at 50 ppm [4] | mortality at 10 ppm [6] | mortality at 50 ppm [6]

Cc1cccc(-c2c([O-])[n+](Cc3cncnc3)c3ccccn3c2=O)c1 [Compound 11, 2-hydroxy-3-(3-methylphenyl)-4-oxo-1-(5-pyrimidinylmethyl)-4H-pyrido[1,2-a]pyrimidinium inner salt]
≥ 80%: mortality at 10 ppm [5] | mortality at 10 ppm [1] | mortality at 50 ppm [1] | mortality at 10 ppm [4] | mortality at 50 ppm [4] | mortality at 10 ppm [6] | mortality at 50 ppm [6]

O=c1c(-c2ccc(F)c(C(F)(F)F)c2)c([O-])[n+](Cc2cncnc2)c2ccccn12 [Compound 12, 3-[4-fluoro-3-(trifluoromethyl)phenyl]-2-hydroxy-4-oxo-1-(5-pyrimidinylmethyl)-4H-pyrido[1,2-a]pyrimidinium inner salt]
≥ 80%: mortality at 10 ppm [5] | mortality at 10 ppm [1] | mortality at 50 ppm [1] | mortality at 50 ppm [2] | mortality at 10 ppm [4] | mortality at 50 ppm [4] | mortality at 50 ppm [6]

O=c1c(-c2cc(Cl)cc(C(F)(F)F)c2)c([O-])[n+](Cc2cncnc2)c2ccccn12 [Compound 15, 3-[3-chloro-5-(trifluoromethyl)phenyl]-2-hydroxy-4-oxo-1-(5-pyrimidinylmethyl)-4H-pyrido[1,2-a]pyrimidinium inner salt]
≥ 80%: mortality at 10 ppm [5] | mortality at 2 ppm [1] | mortality at 10 ppm [1] | mortality at 50 ppm [1] | mortality at 10 ppm ([3]; sprayed at 10 ppm) | mortality at 50 ppm [3] | mortality at 2 ppm [4] | mortality at 10 ppm [4] | mortality at 50 ppm [4]

O=c1c(-c2cc(Cl)cc(Cl)c2)c([O-])[n+](Cc2cncnc2)c2ccccn12 [Compound 16, 3-(3,5-dichlorophenyl)-2-hydroxy-4-oxo-1-(5-pyrimidinylmethyl)-4H-pyrido[1,2-a]pyrimidinium inner salt]
≥ 80%: mortality at 10 ppm [1] | mortality at 50 ppm [1] | mortality at 50 ppm [3]

O=c1c(-c2cc(Cl)c(F)c(Cl)c2)c([O-])[n+](Cc2cncnc2)c2ccccn12 [Compound 17, 3-(3,5-dichloro-4-fluorophenyl)-2-hydroxy-4-oxo-1-(5-pyrimidinylmethyl)-4H-pyrido[1,2-a]pyrimidinium inner salt]
≥ 80%: mortality at 10 ppm [1] | mortality at 50 ppm [1]

Cc1cc(-c2ccc(C#N)cc2C)cc(-c2c([O-])[n+](Cc3cncnc3)c3ccccn3c2=O)c1 [Compound 18, 3-(4′-cyano-5,2′-dimethyl[1,1′-biphenyl]-3-yl)-2-hydroxy-4-oxo-1-(5-pyrimidinylmethyl)-4H-pyrido[1,2-a]pyrimidinium inner salt]
≥ 80%: mortality at 50 ppm [1] | mortality at 50 ppm [4]

O=c1c(-c2cccc(Cl)c2)c([O-])[n+](Cc2cncnc2)c2ccccn12 [Compound 19, 3-(3-chlorophenyl)-2-hydroxy-4-oxo-1-(5-pyrimidinylmethyl)-4H-pyrido[1,2-a]pyrimidinium inner salt]
≥ 80%: mortality at 10 ppm [1] | mortality at 50 ppm [1] | mortality at 50 ppm [3] | mortality at 10 ppm [4] | mortality at 50 ppm [4]
